# According to patent US20080021002A1, “VITAMIN D COMPOUNDS USED TO STABILIZE KIDNEY TRANSPLANTS” (priority 2000, published 2008):
# What was measured:
# Type in all cases: in vivo, rat
# [1] = test system: MMP 2 protein; test: Antigen-capture ELISA of renal graft lysates, total MMP 2 protein; conditions: vs untreated allogeneic group (FIG. 5B); 1,25-(OH)2D3: syngeneic and allogeneic groups; CSA: allogeneic
# Procedure: (§1) FIG. 5 is a set of graphs showing that 1,25-(OH)2D3 Treatment Alters MMP and TIMP Expression . […] S26 was used as the housekeeping gene. […] Fold changes are expressed relative to the allogeneic untreated control.
# Enzyme Linked Immunoabsorbant Assay (ELISA): TGFβ-1 and MMP 2 levels were quantified by antigen-capture ELISA. […] After blocking with 1× block buffer at 37° C. for 35 minutes 25 ul of cell lysate (diluted 1:10 in the lysis buffer) was added to the wells. A standard curve was generated by performing two fold serial dilutions of the standard active TGFβ-1 antigen (diluted 15.6 pg/ml to 1000 pg/ml, Promega, Inc.) or MMP2 (0.5 ng/ml to 100 ng/ml, R and D Systems). The plate was incubated for 2 hours at RT with shaking and then washed extensively with wash buffer (0.05% Tween 20 in PBS) followed by PBS. The TGFβ-1 ELISA was then developed according to the manufacturer's instruction. For the MMP2 ELISA, biotinylated detection antibody, clone 101721 (25 μL/well at 1.4 ug/ml R and D Systems) was added and incubated at RT (1hour, with shaking). The antibody was biotinylated using a Mini-Biotin-XX Protein Labeling Kit (F-6347) according to manufacturer's instruction (Molecular Probes, Eugene Oreg.). […] Absorbance was measured at 450 nm on a Vmax Kinetic microplate reader (Molecular Devices, Sunnyvale Calif.). […]
# [2] = test system: MMP 2 mRNA; test: Semi-quantitative RT-PCR of renal grafts, MMP 2 mRNA
# Procedure: as §1
# (§2) Semi-quantitative Reverse transcription polymerace chain reaction (RT-PCR): Following graft harvest a […] containing both cortex and medulla was snap frozen in liquid nitrogen. Semi-quantitative RT-PCR was performed as described. Little et al. Transplant Int. 12:393-401, 1999. Briefly, samples were homogenized then total RNA extracted with RNAzol B (Tel Test, Inc., Friendswood, Tex.) and reversed transcribed to cDNA according to manufacturer=s instructions (Superscript, Gibco BRL). PCR was performed over the linear range of amplification for both the gene of interest, e.g. TGFβ-1, and the ribosomal protein S26 as a control housekeeping gene. PCR conditions were chosen such that both products were amplified with similar efficiency. The following cycle parameters were employed: denaturing, 94° C. for 60 seconds; annealing, 61° C. for 60 seconds; and extension, 72° C. for 60 seconds. The amount of product was quantified using a phosphoimager (Storm 80) following gel electrophoresis and Vista green detection.
# [3] = test system: Vitamin D receptor mRNA; test: Semi-quantitative RT-PCR of renal grafts, vitamin D receptor mRNA
# Procedure: as §2, with “12:393-401, 1999.” left out
# [4] = test system: Smad 2 protein; test: Western blot of renal graft lysates, Smad 2 protein; conditions: vs allogeneic untreated controls
# From the text: Renal lysates were subjected to SDS-PAGE and transferred to nitrocellulose membranes. The membranes were probed with specific anti-Smad antibodies and appropriated HRP-conjugated secondary antibodies. Signal was detected with chemilumensnce. Following exposure, x-ray films were scanned and the amount of expression compared to that of tubulin as an internal control using Scion Image software. FIG. 4 (A) describes R-Smad expression. FIG. 4 (B) described I-Smad expression.
# Western Blot Analysis: A portion of the snap frozen graft containing both cortex and medulla was ground with a mortar and pestle. For each 100 mg of tissue, the sample was resuspened in 400 ul of lysis buffer (10 mM Tris base, 150 mM NaCl, pH 8.0) containing protease inhibitors (P2714 1:1000. Sigma Chemical Co., St. Louis, Mo.) and homogenized (PowerGen 125, 1 minute). Triton X100 was then added to 1% and the sample place on ice, for 30 minutes. The solubilized sample was then spun at 4° C. for 15 minutes at 15,000×G. The supernatant was collected and stored at −80° C. Sample protein concentrations were determined using the Micro BCA assay (Pierce Chemical Co., Rockford, Ill.) according to manufacturer=s instructions, except that the assay was performed in half area plates combining 35 μl sample with 70 µl of reagent. […]
smiles,measurement,setting,value
"C=C1/C(=C\C=C2/CCC[C@]3(C)[C@@H]([C@H](C)CCCC(C)(C)O)CC[C@@H]23)C[C@@H](O)C[C@@H]1O [calcitriol, 1,25-dihydroxyvitamin D3]",Total MMP 2 protein expression,[1],increased
same,Increase in MMP 2 mRNA levels,[2]; allogeneic grafts (FIG. 5A),5.6 fold
same,Increase in MMP 2 mRNA levels,[2]; syngeneic grafts (FIG. 5A),4.0 fold
same,Vitamin D receptor mRNA expression,[3]; all treated groups vs untreated syngeneic control (data not shown),elevated
same,Vitamin D receptor mRNA expression,[3]; vs untreated allogeneic control (data not shown),not significantly different
same,Decrease in Smad 2 protein levels,[4]; 500 ng/rat/day (data not shown),208 fold
same,Decrease in Smad 2 protein levels,"[4]; 1000 ng/rat/day, p=0.04",516 fold
